According to patent US10213427B2 (Incyte Corporation, priority 2010, dated 2019):
pIC50: −log10 of the molar value.

Target: FGFR3 enzyme (Millipore) (Homo sapiens (Human), UniProt P22607)
Assay: FGFR3 Enzymatic Assay
Type: biochemical
Conditions: FRET peptide phosphorylation, 140 μM ATP
Method: The inhibitor potency of compounds of the invention was measured in an enzyme assay that measures peptide phosphorylation using FRET measurements to detect product formation. Inhibitors were serially diluted in DMSO and a volume of 0.5 μL was transferred to the wells of a 384-well plate. A 10 μL volume of FGFR3 enzyme (Millipore) diluted in assay buffer (50 mM HEPES, 10 mM MgCl2, 1 mM EGTA, 0.01% Tween-20, 5 mM DTT, pH 7.5) was added to the plate and pre-incubated for 5-10 minutes. Appropriate controls (enzyme blank and enzyme with no inhibitor) were included on the plate. […] The plate was incubated at 25° C. for 1 hr. […] The plate was allowed to equilibrate for ˜1 hr before scanning the wells on a PheraStar plate reader.
GraphPad prism3 was used to analyze the data. The IC50 values were derived by fitting the data to the equation for a sigmoidal dose-response with a variable slope. Y=Bottom+(Top−Bottom)/(1+10^((Log IC50−X)*HillSlope)) where X is the logarithm of concentration and Y is the response.

FGFR3 enzyme (Millipore), sequence (P22607 23-806): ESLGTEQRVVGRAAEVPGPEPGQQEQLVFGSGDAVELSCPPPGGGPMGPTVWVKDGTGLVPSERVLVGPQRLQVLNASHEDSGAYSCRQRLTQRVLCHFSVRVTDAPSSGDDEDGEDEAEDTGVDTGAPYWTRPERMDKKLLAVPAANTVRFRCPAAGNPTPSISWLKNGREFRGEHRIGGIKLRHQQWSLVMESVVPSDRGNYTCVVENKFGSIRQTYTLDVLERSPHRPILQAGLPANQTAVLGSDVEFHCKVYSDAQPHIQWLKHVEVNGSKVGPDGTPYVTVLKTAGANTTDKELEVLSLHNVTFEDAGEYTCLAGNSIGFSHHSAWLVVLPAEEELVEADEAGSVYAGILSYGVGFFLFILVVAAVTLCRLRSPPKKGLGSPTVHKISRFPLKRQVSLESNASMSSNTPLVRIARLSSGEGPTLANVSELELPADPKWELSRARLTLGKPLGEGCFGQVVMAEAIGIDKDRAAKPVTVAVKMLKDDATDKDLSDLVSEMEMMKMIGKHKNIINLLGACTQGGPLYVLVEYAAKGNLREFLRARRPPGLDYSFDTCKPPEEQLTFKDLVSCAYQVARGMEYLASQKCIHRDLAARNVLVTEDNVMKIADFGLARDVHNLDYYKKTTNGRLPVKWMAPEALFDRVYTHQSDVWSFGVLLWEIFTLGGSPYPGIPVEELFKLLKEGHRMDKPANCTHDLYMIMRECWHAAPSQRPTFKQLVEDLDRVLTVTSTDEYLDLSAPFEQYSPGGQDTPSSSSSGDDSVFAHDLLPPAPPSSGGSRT

SMILES	pIC50
O=C(NCC(F)(F)F)Nc1cccc(-c2cnc3cc(-c4cnn(C5CCN(C(=O)CCC6CC6)CC5)c4)cnn23)c1 [Example 46, N-[3-(7-{1-[1-(3-Cyclopropylpropanoyl)piperidin-4-yl]-1H-pyrazol-4-yl}imidazo[1,2-b]pyridazin-3-yl)phenyl]-N′-(2,2,2-trifluoroethyl)urea]	> 8.00
CC(C(=O)N1CC[C@H](O)C1)c1ccc(-c2cnn3c(-c4cccc(NC(=O)NCC(F)(F)F)c4)cnc3c2)cc1 (stereo partly drawn) [Example 101, N-{3-[7-(4-{2-[(3S)-3-Hydroxypyrrolidin-1-yl]-1-methyl-2-oxoethyl}phenyl)imidazo[1,2-b]pyridazin-3-yl]phenyl}-N′-(2,2,2-trifluoroethyl)urea]	> 8.00
CC(C(=O)N1CCOCC1)c1ccc(-c2cnn3c(-c4cccc(NC(=O)NCC(F)(F)F)c4)cnc3c2)cc1 (stereo not shown) [Example 105, N-(3-{7-[4-(1-Methyl-2-morpholin-4-yl-2-oxoethyl)phenyl]imidazo[1,2-b]pyridazin-3-yl}phenyl)-N′-(2,2,2-trifluoroethyl)urea]	> 8.00
CC(C(=O)NCC1CC1)c1ccc(-c2ccc3c(c2)ncn3-c2cccc(NC(=O)NCC(F)(F)F)c2)cc1 (stereo not shown) [Example 16, N-(Cyclopropylmethyl)-2-(4-{{1-[3-(([(2,2,2-trifluoroethyl)amino]carbonyl)}amino)phenyl]-1H-benzimidazol-5-yl}phenyl)propanamide]	> 8.00
N#CCC(n1cc(-c2ccc3c(c2)ncn3-c2cccc(NC(=O)NCC(F)(F)F)c2)cn1)C(F)(F)F (stereo not shown) [Example 22, N-[3-(5-{1-[1-(Cyanomethyl)-2,2,2-trifluoroethyl]-1H-pyrazol-4-yl}-1H-benzimidazol-1-yl)phenyl]-N′-(2,2,2-trifluoroethyl)urea]	> 8.00
CC(C(=O)N(C)C)c1ccc(-c2ccc3c(c2)ncn3-c2cccc(NC(=O)NCC(F)(F)F)c2)cc1 (stereo not shown) [Example 15, N,N-Dimethyl-2-(4-{1-[3-({[(2,2,2-trifluoroethyl)amino]carbonyl}amino)phenyl]-1H-benzimidazol-5-yl}phenyl)propanamide]	> 8.00
CN1CCC(CNC(=O)c2cccc(-c3ccc4c(c3)ncn4-c3cccc(NC(=O)NCC(F)(F)F)c3)c2)CC1 [Example 3, N-[(1-Methylpiperidin-4-yl)methyl]-3-{1-[3-({[(2,2,2-trifluoroethyl)amino]carbonyl}amino)phenyl]-1H-benzimidazol-5-yl}benzamide]	> 8.00
COC1CCN(C(=O)C(C)n2cc(-c3cnn4c(-c5cccc(NC(=O)NCC(F)(F)F)c5)cnc4c3)cn2)C1 (stereo not shown) [Example 68, N-[3-(7-{1-[2-(3-Methoxypyrrolidin-1-yl)-1-methyl-2-oxoethyl]-1H-pyrazol-4-yl}imidazo[1,2-b]pyridazin-3-yl)phenyl]-N′-(2,2,2-trifluoroethyl)urea]	> 8.00
O=C(NCC(F)(F)F)Nc1cccc(-n2cnc3cc(-c4cccc(C(=O)NCC5CC5)c4)ccc32)c1 [Example 1]	> 8.00
Cc1oncc1S(=O)(=O)N1CC(CC#N)(n2cc(-c3cnn4c(-c5cccc(NC(=O)NCC(F)(F)F)c5)cnc4c3)cn2)C1 [Example 74, N-{3-[7-(1-{3-(Cyanomethyl)-1-[(5-methylisoxazol-4-yl)sulfonyl]azetidin-3-yl}-1H-pyrazol-4-yl)imidazo[1,2-b]pyridazin-3-yl]phenyl}-N′-(2,2,2-trifluoroethyl)urea]	> 8.00
O=C(NCC(F)(F)F)Nc1cccc(-c2cnc3cc(-c4cnn(C5CCN(C(=O)NCc6ccccc6)CC5)c4)cnn23)c1 [Example 39, N-Benzyl-4-(4-{3-[3-({[(2,2,2-trifluoroethyl)amino]carbonyl}amino)phenyl]imidazo[1,2-b]pyridazin-7-yl}-1H-pyrazol-1-yl)piperidine-1-carboxamide]	> 8.00
CC(C(=O)NCCN1CCCC1=O)n1cc(-c2cnn3c(-c4cccc(NC(=O)NCC(F)(F)F)c4)cnc3c2)cn1 (stereo not shown) [Example 62, N-[2-(2-Oxopyrrolidin-1-yl)ethyl]-2-(4-{3-[3-({[(2,2,2-trifluoroethyl)amino]carbonyl}amino)phenyl]imidazo[1,2-b]pyridazin-7-yl}-1H-pyrazol-1-yl)propanamide]	> 8.00
O=C(NCC(F)(F)F)Nc1cccc(-n2cnc3cc(-c4ccc(C(=O)NCC5CCCCC5O)cc4)ccc32)c1 (stereo not shown) [Example 9]	> 8.00
CC(C(=O)NCc1ccccn1)n1cc(-c2cnn3c(-c4cccc(NC(=O)NCC(F)(F)F)c4)cnc3c2)cn1 (stereo not shown) [Example 61, N-(Pyridin-2-ylmethyl)-2-(4-{3-[3-({[(2,2,2-trifluoroethyl)amino]carbonyl}amino)phenyl]imidazo[1,2-b]pyridazin-7-yl}-1H-pyrazol-1-yl)propanamide]	> 8.00
CC(C(=O)NC1CCOCC1)n1cc(-c2cnn3c(-c4cccc(NC(=O)NCC(F)(F)F)c4)cnc3c2)cn1 (stereo not shown) [Example 57, N-(Tetrahydro-2H-pyran-4-yl)-2-(4-{3-[3-({[(2,2,2-trifluoroethyl)amino]carbonyl}amino)phenyl]imidazo[1,2-b]pyridazin-7-yl}-1H-pyrazol-1-yl)propanamide]	> 8.00
O=C(NCC(F)(F)F)Nc1cccc(-n2cnc3cc(-c4ccc(C(=O)NCc5cccnc5)cc4)ccc32)c1 [Example 12, N-(Pyridin-3-ylmethyl)-4-{1-[3-({[(2,2,2-trifluoroethyl)amino]carbonyl}amino)phenyl]-1H-benzimidazol-5-yl}benzamide]	> 8.00
O=C(NCC(F)(F)F)Nc1cccc(-n2cnc3cc(-c4cnn(C5CCN(C(=O)N6CCCC6)CC5)c4)ccc32)c1 [Example 26, N-[3-(5-{t-[1-(Pyrrolidin-1-ylcarbonyl)piperidin-4-yl]-1H-pyrazol-4-yl}-1H-benzimidazol-1-yl)phenyl]-N′-(2,2,2-trifluoroethyl)urea]	> 8.00
Cn1cc(C(=O)N2CCC(n3cc(-c4cnn5c(-c6cccc(NC(=O)NCC(F)(F)F)c6)cnc5c4)cn3)CC2)cn1 [Example 32, N-{3-[7-(1-{1-[(1-Methyl-1H-pyrazol-4-yl)carbonyl]piperidin-4-yl}-1H-pyrazol-4-yl)imidazo[1,2-b]pyridazin-3-yl]phenyl}-N′-(2,2,2-trifluoroethyl)urea]	> 8.00
CNC(=O)C(C)c1ccc(-c2cnn3c(-c4cccc(NC(=O)NCC(F)(F)F)c4)cnc3c2)cc1 (stereo not shown) [Example 98, N-Methyl-2-(4-{3-[3-({[(2,2,2-trifluoroethyl)amino]carbonyl}amino)phenyl]imidazo[1,2-b]pyridazin-7-yl}phenyl)propanamide]	> 8.00
N#CCC(n1cc(-c2cnn3c(-c4cccc(NC(=O)NCC(F)(F)F)c4)cnc3c2)cn1)C(F)(F)F (stereo not shown) [Example 90, N-[3-(7-{1-[1-(Cyanomethyl)-2,2,2-trifluoroethyl]-1H-pyrazol-4-yl}imidazo[1,2-b]pyridazin-3-yl)phenyl]-N′-(2,2,2-trifluoroethyl)urea]	> 8.00
CC(C(=O)N1CCC(C#N)CC1)n1cc(-c2cnn3c(-c4cccc(NC(=O)NCC(F)(F)F)c4)cnc3c2)cn1 (stereo not shown) [Example 70, N-[3-(7-{1-[2-(4-Cyanopiperidin-1-yl)-1-methyl-2-oxoethyl]-1H-pyrazol-4-yl}imidazo[1,2-b]pyridazin-3-yl)phenyl]-N′-(2,2,2-trifluoroethyl)urea]	> 8.00
N#CCC(C1CC1)n1cc(-c2cnn3c(-c4cccc(NC(=O)NCC(F)(F)F)c4)cnc3c2)cn1 (stereo not shown) [Example 92, N-(3-{7-[1-(2-Cyano-1-cyclopropylethyl)-1H-pyrazol-4-yl]imidazo[1,2-b]pyridazin-3-yl}phenyl)-N′-(2,2,2-trifluoroethyl)urea]	> 8.00
Cn1ccnc1CNC(=O)c1ccc(-c2ccc3c(c2)ncn3-c2cccc(NC(=O)NCC(F)(F)F)c2)cc1 [Example 13, N-[(1-Methyl-1H-imidazol-2-yl)methyl]-4-{1-[3-({[(2,2,2-trifluoroethyl)amino]carbonyl}amino)phenyl]-1H-benzimidazol-5-yl}benzamide]	> 8.00
CC(C(=O)N1CCN(C)CC1)n1cc(-c2cnn3c(-c4cccc(NC(=O)NCC(F)(F)F)c4)cnc3c2)cn1 (stereo not shown) [Example 60, N-[3-(7-{1-[1-Methyl-2-(4-methylpiperazin-1-yl)-2-oxoethyl]-1H-pyrazol-4-yl}imidazo[1,2-b]pyridazin-3-yl)phenyl]-N′-(2,2,2-trifluoroethyl)urea]	> 8.00
CC(C(=O)N1CCOCC1)n1cc(-c2cnn3c(-c4cccc(NC(=O)NCC(F)(F)F)c4)cnc3c2)cn1 (stereo not shown) [Example 58, N-(3-{7-[1-(1-Methyl-2-morpholin-4-yl-2-oxoethyl)-1H-pyrazol-4-yl]imidazo[1,2-b]pyridazin-3-yl}phenyl)-N′-(2,2,2-trifluoroethyl)urea]	> 8.00
CC(C(=O)NCc1nccn1C)c1ccc(-c2ccc3c(c2)ncn3-c2cccc(NC(=O)NCC(F)(F)F)c2)cc1 (stereo not shown) [Example 20, N-[(1-Methyl-1H-imidazol-2-yl)methyl]-2-(4-{1-[3-({[(2,2,2-trifluoroethyl)amino]carbonyl}amino)phenyl]-1H-benzimidazol-5-yl}phenyl)propanamide]	> 8.00
N#CCC(=O)N1CCC(n2cc(-c3ccc4c(c3)ncn4-c3cccc(NC(=O)NCC(F)(F)F)c3)cn2)CC1 [Example 28, N-[3-(5-{1-[1-(Cyanoacetyl)piperidin-4-yl]-1H-pyrazol-4-yl}-1H-benzimidazol-1-yl)phenyl]-N′-(2,2,2-trifluoroethyl)urea]	> 8.00
N#CCC(c1ccccc1)n1cc(-c2cnn3c(-c4cccc(NC(=O)NCC(F)(F)F)c4)cnc3c2)cn1 (stereo not shown) [Example 93, N-(3-{7-[1-(2-Cyano-1-phenylethyl)-1H-pyrazol-4-yl]imidazo[1,2-b]pyridazin-3-yl}phenyl)-N′-(2,2,2-trifluoroethyl)urea]	> 8.00
